{"source": "patent US20240122922A1", "about": "“Methods Of Treating Cancer With Transmembrane Protein 16F (TMEM16F) Inhibitors” (Institute For Cancer Research d/b/a The Research Institute …, priority 2022, published 2024)", "molecules": {"B1": {"name": "annexin V: recombinant label-free Annexin-V (#ab157342, Abcam) masking cell surface phosphatidylserine (protein, UniProt P08758 2-320, looked up)", "Annexin A5": "AQVLRGTVTDFPGFDERADAETLRKAMKGLGTDEESILTLLTSRSNAQRQEISAAFKTLFGRDLLDDLKSELTGKFEKLIVALMKPSRLYDAYELKHALKGAGTNEKVLTEIIASRTPEELRAIKQVYEEEYGSSLEDDVVGDTSGYYQRMLVVLLQANRDPDAGIDEAQVEQDAQALFQAGELKWGTDEEKFITIFGTRSVSHLRKVFDKYMTISGFQIEETIDRETSGNLEQLLLAVVKSIRSIPAYLAETLYYAMKGAGTDDHTLIRVMVSRSEIDLFNIRKEFRKNFATSLYSMIKGDTSGDYKKALLLLCGEDD"}}, "key": {"[1]": {"test_system": "KPCN349 cells co-cultured with CAFs", "test": "Trogocytosis assay in vitro by flow cytometry (CAF membrane uptake by PDAC cells)", "type": "cell-based, murine", "details": "100 nM, CAFs pre-treated 2 hours and maintained in co-culture, vs vehicle, p<0.05", "experimental": "To label cellular membranes, pairs of lipophilic fluorescent dyes were used according to the manufacturer's instructions in the following combinations: 1) adherent CAFs were stained 1 μM PKH67 (Sigma-Aldrich), Panc-1 were stained in suspension with 10 μM CellTracker™ orange CMTMR (Thermo Fisher Scientific); 2) CAFs labeled with 0.5 μM BODIPY-cholesterol (Topfluor Cholesterol, #DO-016545, Avanti Polar Lipids) dissolved in 0.1 mM methyl-b-cyclodextrin (#C4555, Sigma) with 2 μM cholesterol (#C8667, Sigma-Aldrich) in MEM media at 37° C. for 30 minutes in suspension; murine or human (Panc-1) PDAC cells were stained in suspension with CPD670 (#65-0840-85, Thermo Fisher Scientific). After labeling, CAFs were co-incubated for indicated time intervals with PDAC cells in 12-well culture plates at ratio of 2:1 in half DMEM media. Co-cultures of CAFs and PDAC cells for 3 minutes on ice were used as negative controls. In experiments assessing the effect of extracellular calcium on trogocytoisis, cells were co-cultured in Phosphate Buffered Saline (PBS) containing calcium and magnesium (D8662, Sigma-Aldrich) or in PBS without calcium and magnesium (D8537, Sigma-Aldrich). After co-cultures, cells were collected and pelleted by centrifugation (5 minutes, 1500 rpm), resuspended in 10% formalin (Sigma) for 10 minutes at RT, washed and re-suspended in PBS/1% BSA. Trogocytosis was measured as the acquisition of CAF-specific fluorescence in PDAC cells by flow cytometry on MACSQuant® VYB Flow Cytometer (Miltenyi Biotec) or FACScan analyzer (BD Biosciences). Analysis of dual staining was done using FlowJo software (10.8.1, BD Biosciences). Live cells were gated based on FSC/SSC parameters, then single cells were gated based on SSC-A/SSC-H.\nFor interference with trogocytosis, CAFs were pre-treated prior to co-cultures for 2 hours with recombinant label-free 100 nM Annexin-V (#ab157342, Abcam) or 100 nM Zn-DPA (Molecular Targeting Technologies) and subsequently maintained in co-cultures at the same concentrations."}, "[2]": {"test_system": "KPC3 syngeneic pancreatic tumor grafts", "test": "Treatment of orthotopic syngeneic KPC3 pancreatic tumors with oral ANO6 inhibitors", "type": "in vivo, C57Bl/6J mice", "details": "oral gavage 5 days/week for 3 weeks; niclosamide 150 mg/kg, clofazimine 50 mg/kg; vs vehicle, p<0.001", "experimental": "(§1) Syngeneic 5×10^5 KPC3 cells were orthotopically injected to the tail of pancreas of anesthetized C57Bl/6J mice. Treatment with ANO6 inhibitors niclosamide or clofazimine commenced on 2 days post-implantation: niclosamide (150 mg/kg of mouse body weight, Cayman #10649), clofazimine (50 mg/kg, MedChem Express), or corn oil (50 mg/kg, Sigma #C8267) as vehicle were given by oral gavages 5 days/week for 3 weeks. Mice were kept under defined-flora pathogen-free conditions. Mice of both genders, equally distributed, were used for the experiments."}, "[3]": {"test_system": "DsRed-tagged KPC3 tumors", "test": "In vivo fluorescent LDL (BODIPY-cholesterol) imaging by multiphoton microscopy", "set-up": "species or system mice", "experimental": "as §1"}}, "note": "“Also recorded” adds a separate entry of the source.", "data": [{"molecule": "[Zn].c1ccc(CNCc2ccccn2)nc1", "note": "[Zn-DPA, zinc-dipicolylamine]", "values": [{"measurement": "uptake of BODIPY-labeled CAF membranes by KPCN349 cells", "setting": "[1]", "result": "significantly reduced the uptake"}, {"measurement": "uptake of BODIPY-labeled CAF membranes by KPCN349 cells", "setting": "[1]; listed as bis-Zn-dipicolylamine", "result": "antagonizes uptake"}]}, {"molecule": "CC(C)/N=c1\\cc2n(-c3ccc(Cl)cc3)c3ccccc3nc-2cc1Nc1ccc(Cl)cc1", "note": "[clofazimine]", "values": [{"measurement": "weights of orthotopic syngeneic pancreatic tumors", "setting": "[2]", "result": "significant reduction of tumor weights"}]}, {"molecule": "O=C(Nc1ccc([N+](=O)[O-])cc1Cl)c1cc(Cl)ccc1O", "note": "[niclosamide]", "values": [{"measurement": "weights of orthotopic syngeneic pancreatic tumors", "setting": "[2]", "result": "significant reduction of tumor weights"}, {"measurement": "accumulation of intratumoral vesicles containing BODIPY-cholesterol", "setting": "[3]; 19 hours post injection, niclosamide vs vehicle", "result": "dramatically reduced"}, {"measurement": "accumulation of BODIPY-cholesterol from intravenously administered LDL in DsRed-tagged KPC3 cancer cells (intratumoral to peri-tumoral fluorescence)", "setting": "[3]; niclosamide 150 mg/kg/day, 10, 16 and 19 hours post injection, vehicle tumors showed 6-fold enrichment at 16 hours", "result": "suppressed accumulation"}]}, {"molecule": "B1", "values": [{"measurement": "uptake of BODIPY-labeled CAF membranes by KPCN349 cells", "setting": "[1]", "result": "significantly reduced the uptake; also recorded: antagonizes uptake"}]}]}
